From article PMC7363885, “Fluorescent artificial receptor-based membrane assay (FARMA) for spatiotemporally resolved monitoring of biomembrane permeability” (Communications Biology, 2020)
Marks after values point to notes of the source that are not given here.

Legend:
[1] = Experimental: Supplementary Table 3 | Qualitative assessment of membrane permeability for more tha n 90 different organic compoundsa investigated by the FARMA-assay with receptors FAR-1, FAR-2, and FAR-3, and, for comparison, investigations by the dye displacement signal generation strategy with the sensing ensembles (CB8•MV•2,6-ANS, CB8•MV•5HO-Trp, CB7•BE, and CB7•PAL). […]
a See also Fig. 2 in main text for chemical structures. b λexc = 400 nm, λobs = 450 nm. c λexc = 310 nm, λobs = […]
ethanol (10 mM stock). m Emerging excimer band at λobs = 500 nm was monitored. n Control experiment in the absence of host (CB8) was also carried out. o λobs = 500 nm was chosen to by-pass the self-fluorescence

[2] = tested on: FAR-2; experiment: Fluorescence titration, FAR•analyte complex formation in homogeneous solution; settings: 10 mM HEPES buffer (pH 7), 1:1 binding model, error estimate ≤ 20%
Experimental: (§1) Fluorescence titrations were carried out in aqueous HEPES buffer (10 mM, pH 7, 22 °C) unless stated otherwise. To a solution of the FAR (typically at 10–30 μM) was stepwise added a solution of the analyte (typically up to 2 mM) and the fluorescence spectra were recorded. The normalized emissions at 450 nm (FAR-1) or at 370 nm (FAR-2) were fitted with an equation for a 1 : 1 binding by a least-square fit. The resulting affinity constants are reported in Supplementary Table 1. Representative titration plots are shown in Supplementary Fig. 1.

[3] = Dye displacement membrane assay (liposome-encapsulated host•dye ensembles)
Description: Supplementary Figure 13 | Graphical representation of membrane assays using dye displacement for signaling. Diffusion of analytes through a lipid membrane is detected by displacement of the dye from (a) a host•dye or (b) a host•dye•quencher complex, leading to reduction or enhancement in emission intensity.
Supplementary Figure 14 | Membrane permeation monitoring of analytes by dye displacement. (a) Time-resolved changes in fluorescence intensity of CB7•BE-loaded liposomes (λexc = 347 nm, λobs = 500 nm) upon addition of the membrane-permeable analyte tyramine and membrane destabilizing peptide melittin.
(b) Evolution of fluorescence intensity after addition of dimethylbenzylamine (DMBA) to CB7•PAL-loaded liposomes (λexc = 347 nm, λobs = 500 nm). (c) Fluorescence response after addition of the […]
tryptophan to liposomes loaded with CB8•MV•2,6-ANS (λexc = 380 nm, λobs = 463 nm). […]
Combing equations S1 and S2, one arrives at Papp = kp∙(r/3) = kobs/canalyte∙cFAR∙(r/3) (equation 1 in main text)
Dye displacement membrane assay
Dye displacement membrane assays rely on selective encapsulation of reporter pairs inside liposomes and the reversible interaction between the receptor and the translocated analyte. To conduct the assay, liposomes containing the chemosensing ensemble composed of a macrocyclic host and a dye are prepared and purified, such that a subsequently added analyte affects the dye fluorescence only if it can enter the vesicle and displaces the dye from the macrocycle. Until now, only the dye displacement has been used as the signaling mechanism for tandem membrane assays,3, 4 whereby the competitive displacement of the dye from such host•dye complexes upon analyte addition restores the fluorescence features of the dye in solution, Supplementary Figures 13 - 14.
Specifically, this signaling mechanism has been mostly employed with macrocyclic host s with cavity space that is capable o f forming 1:1 complex es, e.g., cucurbit[7]uril (CB7) and the dyes berberine (BER) or palmatine (PAL), see Supplementary Figure 13a, or with p-sulfonato calix[4]arene (CX4) and lucigenin.3,4 Expanding the repertoire of chemosensors for tandem membrane assay s, we exploit herein also the ability of a larger macrocyclic host such as cucurbit[8]uril (CB8) to form 1:1:1 ternary complexes,5-7 and utilize here the quencher methyl viologen (MV) in combination with the fluorescent dyes 5-hydroxy tryptophan (5HO-Trp), 2-anilinonaphthalene -6-sulfonic acid (2,6-ANS) or dapoxyl sulfonic acid, sodium salt (DapoxS), Supplementary Figure 13b. Upon addition of an analyte, the fluorescent dye, the quencher or both the fluorescent dye and quencher are displaced from the CB8 cavity, which in each case is reflected by an increase in the emission intensity of the dye (switch -on displacement assay), Supplementary Figures 14- […]
The dye displacement signal strategy has two important disadvantages compared to the preferred fluorescent artificial receptor (FAR) assays:
(i) The dye displacement strategy is limited to strongly binding analytes, i.e., K(analyte) ≥ K(dye), otherwise a large excess concentration of analyte is needed to generate significant

[4] = in vitro
Description: Elementary physical parameters, such as permeability coefficients, can be extracted from the full kinetic FARMA data. This kinetic profile → parameter mapping requires some assumptions to be made in regard to the permeation mechanism. We applied a reported permeation model for liposomes[31] to arrive at permeation rate constants (kp) and apparent permeability coefficients (Papp). The derivation of the mathematical relation (1), linking the fundamental permeability rate constant and permeability coefficient to experimental measurable kobs rate constants, the known total analyte and total FAR concentration, and the experimentally determined liposome radius (r), is shown in the Supplementary Information.1 Papp=kp⋅r/3=kobs/canalyte⋅cFAR⋅r/3 […]
The volume-to-surface correction factor r/3 accounts for the fact that the observed rates depend on the size, i.e., radius r, of the liposomal assembly. […] The initial-rate method can also be applied, see the Supplementary Information. Moreover, kobs/canalyte can be estimated by single-point measurements at selected canalyte concentration.
A solution of 2.5 mg/mL of POPC and 0.33 mg/mL of POPS in chloroform was purged with nitrogen and dried overnight under […] vacuum. […] The resulting FAR-loaded liposomes were separated from non-encapsulated species by size-exclusion chromatography (NAP-25 column), while maintaining the same buffer. The absence of non-encapsulated FAR was confirmed by adding a non-membrane-permeable species such as tryptophan to a fluorescence cuvette containing 25 µL of liposomes diluted in 1 mL HEPES (10 mM) buffer. Complete removal of non-encapsulated FAR is indicated by the absence of a significant fluorescence change upon Trp addition.
In a typical experiment, 20 µL of liposome solution loaded with FAR was diluted in 1 mL HEPES buffer (10 mM, pH 7.0) in a 1 mL quartz cuvette. An emission spectrum was recorded after 10 min of “equilibration time” on a Varian Eclipse spectrofluorometer thermostated at 22 °C with a water bath using λexc = 400 nm for FAR-1, λexc = 310 nm for FAR-2, and λexc = 330 nm for FAR-3. In the time-resolved experiments, the emission intensity at λobs = 450 nm for FAR-1, λobs = 370 nm for FAR-2, and λobs = 370 and 500 nm for FAR-3 (the latter is the emerging excimer band for certain FAR-3•analyte complexes) was recorded with an averaging time of 0.5 s. […] For single-point experiments, a full spectrum was recorded after a fixed time or several time intervals after analyte addition. […] Only FAR-analyte combinations were used for FARMA, for which no significant autofluorescence and competitive light absorption of the analyte occurred.
For each experiment, measurements from 6 injections were accumulated and the average of these traces was used for data analysis.
Calculation of the unimolecular permeation rate constants ( kp) and of the apparent permeability coefficients (Papp).
The passive diffusion (permeation) of small non-charged compounds follows a modified Fick’s law and can be expressed by a first order kinetics.1 Similar to first order chemical reactions, the kinetics curve can therefore be fitted monoexponentially to obtained the observed permeation rates (kobs). In our assay set-up, such an exponential fit is an approximation, since it neglects that a certain fraction of transported analyte is bound to the FAR and cannot exit the liposome. Nevertheless, the fit of the kinetic curves of the […]
approximation is justified.

[5] = tested on: FAR-1; experiment: Fluorescence titration, FAR•analyte complex formation in homogeneous solution; type: binding
Experimental: as §1, with “Fig. 1. Note that the high CB8-dye binding affinities correspond to a near quantitative degree of host-dye complexation, i.e., quantitative formation of the FAR, such that the subsequent binding of the analyte can be treated independently.” for “Fig. 1.”

[6] = PAMPA; cited from earlier work
[7] = monoexponential fit, analyte 40 µM (bulk), FAR-2 ca. 500 µM in the liposome interior, 20% error
[8] = FAR-1, 10 mM HEPES buffer (pH 7), 1:1 binding model, error estimate ≤ 20%
[9] = dye displacement, CB7•BE-, CB8•MV•5OH-Trp- or CB8•MV•2,6-ANS-loaded liposomes
[10] = FARMA with FAR-loaded liposomes or GUVs

## Clc1ccccc1Cl [1,2-dichlorobenzene]
[1]
  Qualitative assessment of membrane permeability: +

## Oc1ccc(O)cc1 [1,4-dihydroxybenzene]
[2]
  Ka: 2.9 10^3 M−1

## O=C(O)C1C2CC3CC(C2)CC1C3 (stereo not drawn) [2-adamantyl-carboxylate]
[3]
  membrane permeability (in words): membrane-permeable, albeit at a slower rate

## Oc1ccc2ccccc2c1 [2-naphthol]
[4]
  membrane permeability (in words): permeable
[1]
  Qualitative assessment of membrane permeability: +

## N#Cc1ccccc1O [2CN-phenol, 2-cyanophenol]
[4]; [7]
  kobs: 10 s–1
[4]; source data of Fig. 5
  kobs: 10
  log(kobs): 1
[2]
  Ka: 5.8 10^3 M−1

## CCOc1ccc(O)cc1 [4-ethoxyphenol]
[5]; [8]
  Ka: 1 10^3 M−1
[2]
  Ka: 1.0 10^3 M−1

## COc1ccc(O)cc1 [4-methoxyphenol]
[2]
  Ka: 2.4 10^3 M−1

## N#Cc1ccc(O)cc1 [4CN-phenol, 4-cyanophenol]
[4]; not told, pH 7
  kobs: 40
  log(kobs): 1.602
[2]
  Ka: 5.2 10^3 M−1
[1]
  Qualitative assessment of membrane permeability: +
[6]
  Papp Literature: 17 10^−6 cm s^−1

## Nc1ccccc1 [Aniline, aniline]
[4]; [7]
  kobs: 7.5 s–1
[4]; not told, pH 7
  kp: 9400^f
[4]; source data of Fig. 5
  kobs: 7.5
  log(kobs): 0.8751
[5]; [8]
  Ka: 33 10^3 M−1
[2]
  Ka: 25 10^3 M−1
[6]
  Papp Literature: 76 10^−6 cm s^−1

## N[C@@H](Cc1ccccc1)C(=O)O [Phe, phenylalanine]
[5]; [8]
  Ka: 5 10^3 M−1
[3]; [9]
  membrane permeability (in words): membrane impermeable

## Oc1ccccc1 [Phenol, phenol]
[4]; not told, pH 7
  Papp: 112 ×10⁻⁶ cm/s
  kobs: 2.7 s–1
  log(kobs): 0.4314
  time of FARMA signal response (t): < 5 s
[5]; pH 7
  Ka: 56
[6]
  Papp Literature: 47

## NC(=O)C(N)Cc1c[nH]c2ccccc12 (stereo not drawn) [TrpNH2, tryptophanamide]
[5]; [8]
  Ka: 460 10^3 M−1
[6]
  Papp Literature: 2.7 10^−6 cm s^−1

## COC(=O)[C@@H](N)Cc1c[nH]c2ccccc12 [TrpOMe, tryptophan methyl ester]
[4]; [10]
  membrane permeability (in words): rather quickly permeating
[5]; [8]
  Ka: 14 10^3 M−1

## CNC[C@H](O)c1ccc(O)c(O)c1 [adrenaline]
[4]; [10]
  membrane permeability (in words): very slowly permeating
[5]; [8]
  Ka: < 1 10^3 M−1

## c1ccc2[nH]cnc2c1 [benzimidazole]
[4]; [7]
  kobs: 2.7 s–1
[4]; source data of Fig. 5
  kobs: 2.7
  log(kobs): 0.4314
[5]; [8]
  Ka: 7.5 10^3 M−1

## NCCCCCN [cadaverine]
[3]; [9]
  membrane permeability (in words): membrane impermeable

## NCCc1ccc(O)c(O)c1 [dopamine]
[4]; [10]
  membrane permeability (in words): very slowly permeating
[5]; [8]
  Ka: 0.10 10^3 M−1

## c1ccc2ccccc2c1 [naphthalene]
[4]; [10]
  membrane permeability (in words): permeating
[5]; [8]
  Ka: > 50 10^3 M−1

## COc1ccc(B(O)O)cc1 [p-anisylboronic acid]
[2]
  Ka: 4.8 10^3 M−1

## Cc1ccc(C)cc1 [p-xylene, 1,4-dimethylbenzene]
[4]; [7]
  kobs: 17 s–1
[4]; source data of Fig. 5
  kobs: 17
  log(kobs): 1.23
[1]
  Qualitative assessment of membrane permeability: +

## NCCc1ccccc1 [phenethylamine]
[4]; [7]
  kobs: 0.22 s–1
[4]; source data of Fig. 5
  kobs: 0.22
  log(kobs): -0.6576
[5]; [8]
  Ka: 8 10^3 M−1

## OC[C@H]1O[C@@H](Oc2ccccc2)[C@H](O)[C@@H](O)[C@H]1O [phenyl-β-D-galactopyranoside]
[4]; [10]
  membrane permeability (in words): slowly permeating
[4]; slow response, without enzyme
  time of FARMA signal response (t): > 300 s
[5]; [8]
  Ka: 30 10^3 M−1

## CCC(=O)Nc1ccc(Cl)c(Cl)c1 [propanil]
[4]; [7]
  kobs: 42 s–1
[4]; source data of Fig. 5
  kobs: 42
  log(kobs): 1.623
[5]; [8]
  Ka: 8 10^3 M−1

## CC(C)NCC(O)COc1cccc2ccccc12 (stereo not drawn) [propranolol, reference compound]
[5]; [8]
  Ka: 3 10^3 M−1
[3]; [9]
  membrane permeability (in words): membrane permeable

## O=C([O-])c1ccccc1.[Na+] [sodium benzoate]
[2]
  Ka: < 1 10^3 M−1

## NCCCNCCCCNCCCN [spermine]
[3]; [9]
  membrane permeability (in words): membrane impermeable

## NCCc1ccc(O)cc1 [tyramine]
[4]; [10]
  membrane permeability (in words): pass the membrane within several minutes to hours
[3]; [9]
  membrane permeability (in words): membrane-permeable
